Test results as given in US20150133426A1, “SUBSTITUTED PYRROLOPYRIMIDINES” (BAYER PHARMA AKTIENGESELLSCHAFT, priority 2012, published 2015).
One block for each compound: values may come before it.

Molecular target: T1, human full-length MKNK1 (Homo sapiens, UniProt Q9BUB5, T385D)
T1 construct: purchased Carna Biosciences 02-145; host or cells: insect cells, baculovirus expression system
Test: MKNK1 kinase high ATP assay (TR-FRET)
Assay type: biochemical
Conditions: high ATP (2 mM), 15 min preincubation with enzyme, GST-MKNK1 (T344D)
Summary of the method: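 GST-tagged full-length human MKNK1 (aa 1-424, T344D), baculovirus-expressed, preincubated 15 min with compound, then reacted 30 min at 22 °C with 2 mM ATP and 0.06 µM biotinylated peptide (final).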

T1 sequence (Q9BUB5 1-424 isoform Q9BUB5-2 T344D): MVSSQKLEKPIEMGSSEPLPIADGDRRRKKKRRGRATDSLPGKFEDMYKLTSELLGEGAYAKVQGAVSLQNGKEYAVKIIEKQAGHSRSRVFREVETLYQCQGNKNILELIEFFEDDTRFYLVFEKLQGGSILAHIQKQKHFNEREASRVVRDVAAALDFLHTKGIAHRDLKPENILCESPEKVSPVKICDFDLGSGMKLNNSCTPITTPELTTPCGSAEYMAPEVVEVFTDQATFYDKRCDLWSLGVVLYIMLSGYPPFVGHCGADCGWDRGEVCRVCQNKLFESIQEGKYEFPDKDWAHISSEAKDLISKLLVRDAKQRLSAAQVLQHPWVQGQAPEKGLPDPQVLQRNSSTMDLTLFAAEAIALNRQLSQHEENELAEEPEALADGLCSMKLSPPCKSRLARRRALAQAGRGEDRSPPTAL

- IC50: 1.79 µM
SMILES: O=c1[nH]c2ccc(Nc3ncnc4[nH]c5c(c34)CCCC5)cc2[nH]1 [Example 115]

- IC50: 0.911 µM
SMILES: O=C(O)C1CCc2[nH]c3ncnc(Nc4ccccc4N4CCOCC4)c3c2C1 (racemic) [Example 186, (RS)-4-{[2-(Morpholin-4-yl)phenyl]amino}-6,7,8,9-tetrahydro-5H-pyrimido[4,5-b]indole-6-carboxylic acid]

- IC50: 3.54 µM
SMILES: O=C1OCCOc2cc(F)ccc2Nc2ncnc3[nH]c4c(c23)CC1CC4 (racemic) [Example 229, (RS)-11-Fluoro-1,3,4,7,8,14-hexahydro-5H-2,4-ethano-6,9-dioxa-1,14,15,17-tetraazabenzo[5,6]cyclotrideca[1,2,3-cd]inden-5-one]

- IC50: 0.012 µM
SMILES: CCNC(=O)C1CCc2[nH]c3ncnc(Nc4cc(Cl)c(Cl)cc4OC)c3c2C1 (racemic) [Example 21, (RS)-4-[(4,5-Dichloro-2-methoxyphenyl)amino]-N-ethyl-6,7,8,9-tetrahydro-5H-pyrimido[4,5-b]indole-6-carboxamide]

- IC50: 1.74 µM
SMILES: Cn1c2c(c3c(Nc4ccc5[nH]ncc5c4)ncnc31)CC(C(=O)NCCCS(C)(=O)=O)CC2 (racemic) [Example 26, (RS)-4-(1H-Indazol-5-ylamino)-9-methyl-N-[3-(methylsulfonyl)propyl]-6,7,8,9-tetrahydro-5H-pyrimido[4,5-b]indole-6-carboxamide]

- IC50: 0.024 µM
SMILES: CS(=O)(=O)CCCNC(=O)C1CCc2[nH]c3ncnc(Nc4ccccc4OC4CCCC4)c3c2C1 (racemic) [Example 78, (RS)-4-{[2-(Cyclopentyloxy)phenyl]amino}-N-[3-(methylsulfonyl)propyl]-6,7,8,9-tetrahydro-5H-pyrimido[4,5-b]indole-6-carboxamide]

- IC50: 13.3 µM
SMILES: CSc1cc2c(cc1Nc1ncnc3[nH]c4c(c13)CC(C(=O)NCCCS(C)(=O)=O)CC4)OCCO2 (racemic) [Example 65, (RS)-4-{[7-(Methylsulfanyl)-2,3-dihydro-1,4-benzodioxin-6-yl]amino}-N-[3-(methylsulfonyl)propyl]-6,7,8,9-tetrahydro-5H-pyrimido[4,5-b]indole-6-carboxamide]

- IC50: 0.751 µM
SMILES: CCOC(=O)C1CCc2[nH]c3ncnc(Nc4ccccc4N4CCOCC4)c3c2C1 (racemic) [Example 172, (RS)-Ethyl 4-{[2-(morpholin-4-yl)phenyl]amino}-6,7,8,9-tetrahydro-5H-pyrimido[4,5-b]indole-6-carboxylate]

- IC50: 0.706 µM
SMILES: CCOC(=O)C1CCc2[nH]c3ncnc(Nc4ccc(F)cc4OC(C)C)c3c2C1 (racemic) [Example 174, (RS)-Ethyl 4-{[4-fluoro-2-(propan-2-yloxy)phenyl]amino}-6,7,8,9-tetrahydro-5H-pyrimido[4,5-b]indole-6-carboxylate]

- IC50: 5.92 µM
SMILES: COc1cc(F)ccc1Sc1ncnc2[nH]c3c(c12)CC(C(=O)NCCCS(C)(=O)=O)CC3 (racemic) [Example 147, (RS)-4-[(4-Fluoro-2-methoxyphenyl)sulfanyl]-N-[3-(methylsulfonyl)propyl]-6,7,8,9-tetrahydro-5H-pyrimido[4,5-b]indole-6-carboxamide]

- IC50: 0.115 µM
SMILES: COc1ccc(F)cc1Nc1ncnc2[nH]c3c(c12)CC(C(=O)N1CCN(C)CC1)CC3 (racemic) [Example 196, (RS)-{4-[(5-Fluoro-2-methoxyphenyl)amino]-6,7,8,9-tetrahydro-5H-pyrimido[4,5-b]indol-6-yl}(4-methylpiperazin-1-yl)methanone]

- IC50: 1.36 µM
SMILES: CS(=O)(=O)CCCNC(=O)C1CCc2[nH]c3ncnc(Nc4cccc5c4OC(F)(F)O5)c3c2C1 (racemic) [Example 60, (RS)-4-[(2,2-Difluoro-1,3-benzodioxol-4-yl)amino]-N-[3-(methylsulfonyl)propyl]-6,7,8,9-tetrahydro-5H-pyrimido[4,5-b]indole-6-carboxamide]

- IC50: 0.113 µM
SMILES: CS(=O)(=O)CCCNC(=O)C1CCc2[nH]c3ncnc(Nc4ccccc4OCC(F)F)c3c2C1 (racemic) [Example 152, (RS)-4-{[2-(2,2-Difluoroethoxy)phenyl]amino}-N-[3-(methylsulfonyl)propyl]-6,7,8,9-tetrahydro-5H-pyrimido[4,5-b]indole-6-carboxamide]

- IC50: 0.001 µM
SMILES: CC(C)Oc1cc2[nH]ncc2cc1Nc1ncnc2[nH]c3c(c12)CC(C(=O)NCCCS(C)(=O)=O)CC3 (racemic) [Example 230, (RS)—N-[3-(Methylsulfonyl)propyl]-4-{[6-(propan-2-yloxy)-1H-indazol-5-yl]amino}-6,7,8,9-tetrahydro-5H-pyrimido[4,5-b]indole-6-carboxamide]

- IC50: 0.006 µM
SMILES: CCNC(=O)C1CCc2[nH]c3ncnc(Nc4cc5cn[nH]c5cc4OC)c3c2C1 (racemic) [Example 218, (RS)—N-Ethyl-4-[(6-methoxy-1H-indazol-5-yl)amino]-6,7,8,9-tetrahydro-5H-pyrimido[4,5-b]indole-6-carboxamide]

- IC50: 0.024 µM
SMILES: CC(C)NC(=O)C1CCc2[nH]c3ncnc(Nc4ccc5[nH]ncc5c4)c3c2C1 (racemic) [Example 227, (RS)-4-(1H-Indazol-5-ylamino)-N-(propan-2-yl)-6,7,8,9-tetrahydro-5H-pyrimido[4,5-b]indole-6-carboxamide]

Continued, compound first:

SMILES: COc1ccc(Cl)cc1Nc1ncnc2[nH]c3c(c12)CC(C(=O)NC(C)C)CC3 (racemic) [Example 224, (RS)-4-[(5-Chloro-2-methoxyphenyl)amino]-N-(propan-2-yl)-6,7,8,9-tetrahydro-5H-pyrimido[4,5-b]indole-6-carboxamide]
- IC50: 0.04 µM

SMILES: CS(=O)(=O)CCCNC(=O)C1CCc2[nH]c3ncnc(Sc4ccc5[nH]ncc5c4)c3c2C1 (racemic) [Example 146, (RS)-4-(1H-Indazol-5-ylsulfanyl)-N-[3-(methylsulfonyl)propyl]-6,7,8,9-tetrahydro-5H-pyrimido[4,5-b]indole-6-carboxamide]
- IC50: 1.13 µM

SMILES: CCOC(=O)C1CCc2[nH]c3ncnc(Nc4cc(Cl)ccc4OC)c3c2C1 (racemic) [Example 175, (RS)-Ethyl 4-[(5-chloro-2-methoxyphenyl)amino]-6,7,8,9-tetrahydro-5H-pyrimido[4,5-b]indole-6-carboxylate]
- IC50: 0.359 µM

SMILES: O=C(NC1CC1)C1CCc2[nH]c3ncnc(Nc4ccccc4N4CCOCC4)c3c2C1 (racemic) [Example 203, (RS)—N-Cyclopropyl-4-{[2-(morpholin-4-yl)phenyl]amino}-6,7,8,9-tetrahydro-5H-pyrimido[4,5-b]indole-6-carboxamide]
- IC50: 0.175 µM

SMILES: CC(C)Oc1cc(F)ccc1Nc1ncnc2[nH]c3c(c12)CC(C(=O)NCCCS(C)(=O)=O)CC3 (racemic) [Example 28, (RS)-4-{[4-Fluoro-2-(propan-2-yloxy)phenyl]amino}-N-[3-(methylsulfonyl)propyl]-6,7,8,9-tetrahydro-5H-pyrimido[4,5-b]indole-6-carboxamide]
- IC50: 0.008 µM

SMILES: CS(=O)(=O)CCCNC(=O)C1CCc2[nH]c3ncnc(Nc4ccc(Cl)c(Cl)c4)c3c2C1 (racemic) [Example 166, (RS)-4-[(3,4-Dichlorophenyl)amino]-N-[3-(methylsulfonyl)propyl]-6,7,8,9-tetrahydro-5H-pyrimido[4,5-b]indole-6-carboxamide]
- IC50: 0.045 µM

SMILES: COCC1(OC)CCc2[nH]c3ncnc(Nc4ccc5[nH]c(=O)sc5c4)c3c2C1 (racemic) [Example 138]
- IC50: 0.358 µM

SMILES: COCC1(OC)CCc2[nH]c3ncnc(Nc4cc5cn[nH]c5cc4F)c3c2C1 (racemic) [Example 139]
- IC50: 0.197 µM

SMILES: COc1cc(Nc2ncnc3[nH]c4c(c23)CC(C(=O)NCCCS(C)(=O)=O)CC4)ccc1F (racemic) [Example 34, (RS)-4-[(4-Fluoro-3-methoxyphenyl)amino]-N-[3-(methylsulfonyl)propyl]-6,7,8,9-tetrahydro-5H-pyrimido[4,5-b]indole-6-carboxamide]
- IC50: 0.306 µM

SMILES: c1ccc(OC2CCCC2)c(Nc2ncnc3[nH]c4c(c23)CCCC4)c1 [Example 116]
- IC50: ≥ 20 µM

SMILES: CC(C)Oc1cc(F)ccc1Nc1ncnc2[nH]c3c(c12)CCC3 [Example 70, N-(4-Fluoro-2-isopropoxyphenyl)-5,6,7,8-tetrahydrocyclopenta[4,5]pyrrolo[2,3-d]pyrimidin-4-amine]
- IC50: 0.048 µM

SMILES: O=C(NCc1ccccc1)C1CCc2[nH]c3ncnc(Nc4ccccc4N4CCOCC4)c3c2C1 (racemic) [Example 206, (RS)—N-Benzyl-4-{[2-(morpholin-4-yl)phenyl]amino}-6,7,8,9-tetrahydro-5H-pyrimido[4,5-b]indole-6-carboxamide]
- IC50: 0.077 µM

SMILES: CC(C)Oc1ccc(Cl)cc1Nc1ncnc2[nH]c3c(c12)CC(C(=O)O)CC3 (racemic) [Example 234, (RS)-4-{[5-Chloro-2-(propan-2-yloxy)phenyl]amino}-6,7,8,9-tetrahydro-5H-pyrimido[4,5-b]indole-6-carboxylic acid]
- IC50: 0.288 µM

SMILES: CCNC(=O)C1CCc2[nH]c3ncnc(Nc4ccc5[nH]ncc5c4)c3c2C1 (racemic) [Example 7, (RS)—N-Ethyl-4-(1H-indazol-5-ylamino)-6,7,8,9-tetrahydro-5H-pyrimido[4,5-b]indole-6-carboxamide]
- IC50: 0.02 µM

SMILES: COCC1(OC)CCc2[nH]c3ncnc(Nc4ccc5[nH]ncc5c4)c3c2C1 (racemic) [Example 135]
- IC50: 0.167 µM

SMILES: CS(=O)(=O)CCCNC(=O)C1CCc2[nH]c3ncnc(Nc4ccc5ncsc5c4)c3c2C1 (racemic) [Example 49, (RS)-4-(1,3-Benzothiazol-6-ylamino)-N-[3-(methylsulfonyl)propyl]-6,7,8,9-tetrahydro-5H-pyrimido[4,5-b]indole-6-carboxamide]
- IC50: 0.231 µM

SMILES: COCC1(OC)CCc2[nH]c3ncnc(Nc4ccc(F)cc4OC4CCCC4)c3c2C1 (racemic) [Example 134]
- IC50: 1.65 µM

SMILES: COc1ccc(Cl)cc1Nc1ncnc2[nH]c3c(c12)CC(C(=O)O)CC3 (racemic) [Example 235, (RS)-4-[(5-Chloro-2-methoxyphenyl)amino]-6,7,8,9-tetrahydro-5H-pyrimido[4,5-b]indole-6-carboxylic acid]
- IC50: 0.159 µM
